Substitutions are numbered along the chain they refer to.
Tests used:
[1] = molecular target: T1, D39G mutant EAG1 channels (Mus musculus, UniProt Q60603, D39G); assay: TEVC recording, imipramine inhibition, D39G mutant; format: cell-based; conditions: D39G mutant EAG1 channel, +50 mV
T1 construct: expressed in transfected cells; host or cells: Xenopus laevis oocytes injected with cRNA
T1 sequence (Q60603 1-989 D39G): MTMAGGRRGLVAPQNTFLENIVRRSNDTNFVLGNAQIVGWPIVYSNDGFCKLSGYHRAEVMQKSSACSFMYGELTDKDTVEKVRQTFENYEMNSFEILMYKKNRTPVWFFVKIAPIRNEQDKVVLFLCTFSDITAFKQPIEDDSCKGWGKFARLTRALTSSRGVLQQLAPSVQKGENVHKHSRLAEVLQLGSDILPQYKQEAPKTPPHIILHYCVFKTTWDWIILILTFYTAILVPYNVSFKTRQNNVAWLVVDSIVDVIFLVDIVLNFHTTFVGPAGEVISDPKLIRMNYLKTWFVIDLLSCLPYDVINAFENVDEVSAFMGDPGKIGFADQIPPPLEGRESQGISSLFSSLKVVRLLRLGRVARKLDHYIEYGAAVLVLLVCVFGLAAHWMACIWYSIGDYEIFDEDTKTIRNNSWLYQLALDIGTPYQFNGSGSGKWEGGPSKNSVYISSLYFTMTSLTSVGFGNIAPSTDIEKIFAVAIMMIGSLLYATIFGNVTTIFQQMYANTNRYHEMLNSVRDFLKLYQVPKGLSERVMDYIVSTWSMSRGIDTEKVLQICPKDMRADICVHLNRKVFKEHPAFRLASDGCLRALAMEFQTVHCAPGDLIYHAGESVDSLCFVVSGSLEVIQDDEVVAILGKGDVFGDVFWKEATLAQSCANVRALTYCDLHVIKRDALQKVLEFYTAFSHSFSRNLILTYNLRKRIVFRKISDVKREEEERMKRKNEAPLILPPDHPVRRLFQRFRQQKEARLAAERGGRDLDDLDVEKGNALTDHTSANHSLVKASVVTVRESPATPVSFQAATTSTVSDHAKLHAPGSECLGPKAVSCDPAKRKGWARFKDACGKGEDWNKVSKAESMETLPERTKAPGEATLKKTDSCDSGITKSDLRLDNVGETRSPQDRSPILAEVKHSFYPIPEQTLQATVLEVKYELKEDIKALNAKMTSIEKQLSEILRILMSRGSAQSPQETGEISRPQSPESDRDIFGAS
Text: (§1) The cDNA encoding wild-type (WT) mouse EAG1 channels in pGH19 vector was kindly provided by G. Robertson (University of Wisconsin-Madison, Madison, WI). The mutant ΔPAS EAG1 channel in pGH19 with the deletion of the PAS domain residues 2 to 130 was generated by Bio Basic Inc and verified by DNA sequencing (Genewiz). Mutant EAG1 channels with single amino acid substitutions were generated by Genewiz and verified by DNA sequencing. cRNA was transcribed using the T7 mMessage mMachine kit (Thermo Fisher Scientific). Defolliculated Xenopus laevis oocytes were purchased from Ecocyte Bioscience or Xenopus1 and injected with the cRNA using a Nanoinject II oocyte injector (Drummond).
(§2) For EAG1 current recordings, oocytes were placed into a handmade chamber containing a bath solution for the current recording. The currents were recorded using a TEVC technique with OC-725C amplifier (Warner Instruments) and pClamp11 software (Molecular Devices). The signals were digitized using Digidata 1550 (Molecular Devices). Patch pipettes were pulled from borosilicate glass and had resistances of 0.7 to 1.5 MΩ. The recording (bath) solution contained 96 mM NaCl, 4 mM KCl, 0.1 mM CaCl2, 1.8 mM MgCl2, and 5 mM HEPES, pH 7.5. The pipette solution contained 3 M KCl. […]

[2] = molecular target: T2, D39G/R84G mutant EAG1 channels (Mus musculus, UniProt Q60603, D39G/R84G); assay: TEVC recording, imipramine inhibition, D39G/R84G double mutant; format: cell-based; conditions: D39G/R84G mutant EAG1 channel, +50 mV
T2 construct: expressed in transfected cells; host or cells: Xenopus laevis oocytes injected with cRNA
T2 sequence (Q60603 1-989 D39G/R84G): T1 sequence (Q60603 1-989 D39G) with R84G
Text: as §1, §2

IC50 [1]: 79.6 ± 5.4 µM | IC50 [2]: 142 ± 28.5 µM
Compound: CN(C)CCCN1c2ccccc2CCc2ccccc21 [imipramine]

Source: PMC10687071 (The Journal of Biological Chemistry, 2023)
